Where a chain is given by its changes, count along the chain named. Where “and” joins values, the source holds several entries; their conditions need not be identical. Equal entries are not always repeated. Where two headings read alike, the source gives them in different places.

For data set [1], the system named is C4-2 (PSMA+) prostate cancer cells. Description: 24 hr cytotoxicity assay of anti-FITC-CAR T cells with P-TriA-FITC, C4-2. Type of data set: cell-based. As to conditions: triplicates. The protocol:
(§1) Transduced human effector cells (˜50% transduction efficiency) were co-incubated with target cells at 10:1 (total T cells to target cells) ratio for 24 hr in the presence of varying concentrations of FITC “switches.” Redirected lysis of target cells was determined by CytoTox96 nonradioactive cytotoxicity assay kit (Promega, Madison, Wis.) according to manufacturer's protocol. The percentage of cytotoxicity was calculated by: % cytotoxicity=(Absorbance experimental average−Absorbance spontaneous average)/(absorbance max killing average−Absorbance spontaneous average)×100.
(§2) Human PBMCs were freshly isolated from whole blood of healthy donors by centrifugation with Ficoll-Paque PLUS (GE healthcare, Piscataway, N.J.) density gradient medium according to manufacturer's protocol. Cells were immediately activated with Dynabeads Human […] CD3/CD28 (Life Technologies, Carlsbad, Calif.) at 3:1 (bead to cell) ratio in AIM-V media (Life Technologies) containing 5% human AB serum (Valley Biomedical, Winchester, Va.). Lentiviral production was carried out using HEK293FT cell lines. Viral supernatant was used directly to transduce activated PBMCs via spinoculation in the presence of protamine sulfate and recombinant human IL2 (R&D systems, Minneapolis, Minn.). C4-2, KB, and A549 cell lines were maintained in RPMI-1640, Eagles's Minimum Essential Media, and F-12K medium supplemented with 10% fetal bovine serum, respectively (all from Life Technologies).
FIG. 5B depicts a scheme for synthesis of the TriA-2-[3-(1,3-dicarboxypropyl)ureido] pentanedioic acid linker to be conjugated to FITC. FIG. 5C depicts the results from a 24 hr cytotoxicity assay of anti-FITC-CAR T cells targeting C4-2 (PSMA+) prostate cancer cells with serial dilutions of P-TriA-FITC. Each concentration was carried out in triplicate. Results are shown as average percentage of cytotoxicity.

Data set [2] can be described thus: Pharmacokinetic study of P-TriA-FITC in mice. Type of data set: in vivo. An excerpt:
(§3) In brief, subcutaneous C4-2 (PSMA+) tumors were established in non-obese diabetic-severe combined immunodeficiency (NOD-SCID-γ−/−, NSG) mice.

In another data set the test system is C4-2 (PSMA+) tumors. Description: In vivo efficacy, subcutaneous C4-2 tumors in NSG mice. As to conditions: s.c. C4-2 tumors.
Excerpt: as §3

The next data set deals with Her2 (UniProt P04626). Description: cell-based or functional assay.
The subject of a further data set is KB (FR+) cells. Put plainly: In vitro cytotoxicity assay of anti-FITC-CAR-Ts with Folate-FITC, KB. Type of data set: cell-based. The method, then:
as §1, §2
(§4) FIG. 6B-6C depicts the results from an in vitro cytotoxicity assay of anti-FITC-CAR-Ts co-incubated with KB (FR+) (see FIG. 6B) or A549 (FR−) (see FIG. 6C) target cells in the presence of varying concentrations Folate-FITC. Each concentration was carried out in triplicates. Results are shown as average percentage of cytotoxicity.

Another data set relates to A549 (FR−) cells. Put plainly: In vitro cytotoxicity assay of anti-FITC-CAR-Ts with Folate-FITC, A549. Particulars: Homo sapiens; for cytotoxicity at 320 fM: 0.32 pM; for cytotoxicity at 0.0002 µM: 200 pM; for cytotoxicity at 0.001 µM: 1000 pM; for cytotoxicity at 0.005 µM: 5000 pM. Type of data set: cell-based. The protocol: as §1, §2, §4
Data set [3] deals with T1, CD19 (human, UniProt P15391 20-556).
T1 sequence (looked up): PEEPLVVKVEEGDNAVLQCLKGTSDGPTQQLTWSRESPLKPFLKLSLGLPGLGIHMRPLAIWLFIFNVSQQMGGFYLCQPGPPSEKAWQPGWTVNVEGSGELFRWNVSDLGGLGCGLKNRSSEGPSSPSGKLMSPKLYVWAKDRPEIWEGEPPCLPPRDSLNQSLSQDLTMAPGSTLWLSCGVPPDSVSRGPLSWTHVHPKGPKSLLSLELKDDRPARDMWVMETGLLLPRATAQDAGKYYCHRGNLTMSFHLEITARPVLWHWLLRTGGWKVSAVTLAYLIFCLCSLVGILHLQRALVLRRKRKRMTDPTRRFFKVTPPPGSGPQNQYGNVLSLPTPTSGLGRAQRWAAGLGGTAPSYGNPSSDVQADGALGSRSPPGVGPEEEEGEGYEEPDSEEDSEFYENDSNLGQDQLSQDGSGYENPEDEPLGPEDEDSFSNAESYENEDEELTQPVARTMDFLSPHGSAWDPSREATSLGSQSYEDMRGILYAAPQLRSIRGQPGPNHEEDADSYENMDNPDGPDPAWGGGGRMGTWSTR
Put plainly: cell-based or functional assay.

For data set [4], the target named is T1, CD19. Put plainly: cell-based or functional assay. The source holds these as a separate data set.

As to `O=C(O)CCC(NC(=O)NC(CCCCn1cc(CCCCCCNC(=O)c2ccc(C(=O)NCCOCCOCCOCCNC(=O)c3ccc4c(c3)C(=O)OC43c4ccc(O)cc4Oc4cc(O)ccc43)cc2)nn1)C(=O)O)C(=O)O` (centres unmarked) [P-TriA-FITC, 2-[3-(1,3-dicarboxypropyl)ureido]pentanedioic acid-TriA-FITC], the percentage of cytotoxicity in data set [1] (4M5.3 anti-FITC CAR T cells, 0.000512 pM) was 3.992% and 3.358% and 4.689%; in data set [1] (4M5.3 anti-FITC CAR T cells, 0.012800 pM), 3.555% and 1.304% and 1.206%; in data set [1] (4M5.3 anti-FITC CAR T cells, 0.320000 pM), 2.224% and 2.545% and 2.965%; in data set [1] (4M5.3 anti-FITC CAR T cells, 8.000000 pM), 9.173% and 10.76% and 7.583%; in data set [1] (4M5.3 anti-FITC CAR T cells, 40.000000 pM), 52.56% and 55.81% and 53.56%; in data set [1] (4M5.3 anti-FITC CAR T cells, 200.000000 pM), 77.22% and 76.53% and 73.92%. Further, the percentage of cytotoxicity in data set [1] (4M5.3 anti-FITC CAR T cells, 1000.000000 pM) is 82.62% and 79.94% and 78.91%; in data set [1] (4M5.3 anti-FITC CAR T cells, 5000.000000 pM), 82.04% and 77.45% and 78.01%; in data set [1] (Non-transduced T cells, 0.000512 pM), 1.418% and 0.8462% and 1.052%; in data set [1] (Non-transduced T cells, 0.012800 pM) it was 1.632% and 0.1496% and 0.8552%; in data set [1] (Non-transduced T cells, 0.320000 pM) it was 0.1943% and 0.5515% and −0.1898%; in data set [1] (Non-transduced T cells, 8.000000 pM), 1.409% and 0.4622% and 0.5515%. Also, the percentage of cytotoxicity in data set [1] (Non-transduced T cells, 40.000000 pM) is −1.11% and −0.5828% and 1.177%; in data set [1] (Non-transduced T cells, 200.000000 pM) it was −0.5292% and 0.5069% and −0.422%; in data set [1] (Non-transduced T cells, 1000.000000 pM), 0.02456% and 0.09601% and 0.04242%; in data set [1] (Non-transduced T cells, 5000.000000 pM) it was 1.052% and −0.9132% and 0.1139%. In addition, in data set [2], the “intravenous (IV) half-life t1/2” value stood at 1.08 ± 0.14 h. Further, the Tumor response result in the data set on C4-2 (PSMA+) tumors (FITC-CART cells (FITC-E2) i.p. plus switch 1 mg/kg i.v. daily for 10 days) is “tumors had regressed”; in the data set with C4-2 (PSMA+) tumors (switch only, no CART cells), “tumor growth continued”.

As for “FITC-anti-Her2 antibody CAR-T switch with FITC conjugated at LC S202pAcF (Fab based on Trastuzumab)”, in the data set with Her2, the % cytotoxicity; 0.01 pM switch; MDA MB231 cells turned out to be 0%, the % cytotoxicity; 0.1 pM switch; MDA MB231 cells is 0%, the % cytotoxicity; 100 pM switch; MDA MB231 cells is 48% and the EC50 of cytotoxicity; SKBR3 cells fell in the range of 8000 to 20000 pM.

Take `Nc1nc2ncc(CNc3ccc(C(=O)N[C@H](CCC(=O)NCCNC(=S)Nc4ccc5c(c4)C(=O)OC54c5ccc(O)cc5Oc5cc(O)ccc54)C(=O)O)cc3)nc2c(=O)[nH]1` [FITC-folate switch]: the cytotoxicity at 1.6 pM is 16.5% with KB (FR+) cells; 3.01% in the data set with KB (FR+) cells (T-cell, KB (FR+), non-transduced T cells, 1.6 pM); 0.527% with A549 (FR−) cells (4M5.3 CAR-T); -1.02% in the data set with A549 (FR−) cells (non-transduced T cells). Further, the cytotoxicity at 8 pM in the data set on KB (FR+) cells was 37.1%; with KB (FR+) cells (T-cell, KB (FR+), non-transduced T cells, 8 pM), 2.19%; with A549 (FR−) cells (4M5.3 CAR-T) it was 0.765%; with A549 (FR−) cells (non-transduced T cells), -1.05%. In addition, the cytotoxicity at 40 pM in the data set with KB (FR+) cells is 68.1%; in the data set on KB (FR+) cells (T-cell, KB (FR+), non-transduced T cells, 40 pM), 2.88%; in the data set on A549 (FR−) cells (4M5.3 CAR-T), 2.55%; in the data set on A549 (FR−) cells (non-transduced T cells) it was -1.52%. Besides, the cytotoxicity at 0.0002 µM with KB (FR+) cells is 74.6%; in the data set on KB (FR+) cells (T-cell, KB (FR+), non-transduced T cells, 200 pM), 2.32%; in the data set with A549 (FR−) cells (4M5.3 CAR-T) it was 5.78%; in the data set with A549 (FR−) cells (non-transduced T cells), -0.96%. Further, the cytotoxicity at 0.001 µM in the data set on KB (FR+) cells was 77.1%; with KB (FR+) cells (T-cell, KB (FR+), non-transduced T cells, 1000 pM), 2.38%; in the data set with A549 (FR−) cells (4M5.3 CAR-T), 5.87%; in the data set on A549 (FR−) cells (non-transduced T cells) it was -1.16%. Also, the cytotoxicity at 0.005 µM in the data set on KB (FR+) cells was 77%; in the data set with KB (FR+) cells (T-cell, KB (FR+), non-transduced T cells, 5000 pM) it was 2.04%; in the data set on A549 (FR−) cells (4M5.3 CAR-T), 3.15%; in the data set with A549 (FR−) cells (non-transduced T cells), -1.61%. Further, the cytotoxicity at 320 fM was 8.3% with KB (FR+) cells; 2.27% with KB (FR+) cells (T-cell, KB (FR+), non-transduced T cells, 0.32 pM); 0.957% in the data set with A549 (FR−) cells (4M5.3 CAR-T); -0.986% with A549 (FR−) cells (non-transduced T cells).

B1: anti-CD19 Fab-FITC switch LG68X (pAzF at glycine 68 of the light chain) (Fab, V domains shown)
VH: EVKLQESGPGLVAPSQSLSVTCTVSGVSLPDYGVSWIRQPPRKGLEWLGVIWGSETTYYNSALKSRLTIIKDNSKSQVFLKMNSLQTDDTAIYYCAKHYYYGGSYAMDYWGQGTSVTVSS
VL: DIQMTQTTSSLSASLGDRVTISCRASQDISKYLNWYQQKPDGTVKLLIYHTSRLHSGVPSRFSGSGSXTDYSLTISNLEQEDIATYFCQQGNTLPYTFGGGTKLEIKR
modifications: p-azidophenylalanine (pAzF) at LC G68, clicked to cyclooctyne-FITC linker
On to B1, for which, in the data set with CD19 [3], the “Cytotoxicity EC50; FITC-E2 CAR-T; NALM6 cells” value worked out at 3.53 pM. Further, in the data set with CD19 [4], the “% cytotoxicity; 0.01 pM switch; FITC-E2 CAR-T; NALM6 cells” value turned out to be 0%, the “% cytotoxicity; 0.1 pM switch; FITC-E2 CAR-T; NALM6 cells” value worked out at 3.85%, the “% cytotoxicity; 1 pM switch; FITC-E2 CAR-T; NALM6 cells” value amounted to 17.8% and the “% cytotoxicity; 10 pM switch; FITC-E2 CAR-T; NALM6 cells” value came out at 56.7%. For the same molecule, in the data set with CD19 [4], the “% cytotoxicity; 100 pM switch; FITC-E2 CAR-T; NALM6 cells” value turned out to be 78.1% and the “% cytotoxicity; 1000 pM switch; FITC-E2 CAR-T; NALM6 cells” value amounted to 74.5%.

B2: anti-CD19 Fab-FITC switch HS74X (pAzF at serine 74 of the heavy chain) (Fab, V domains shown)
VH: B1 VH with S74X
VL: B1 VL with X68G
modifications: pAzF at HC S74, clicked to cyclooctyne-FITC linker
For the molecule B2, the “Cytotoxicity EC50; FITC-E2 CAR-T; NALM6 cells” value with CD19 [3] is 0.97 pM. Besides, in the data set with CD19 [4], the “% cytotoxicity; 0.01 pM switch; FITC-E2 CAR-T; NALM6 cells” value came out at 0%, the “% cytotoxicity; 0.1 pM switch; FITC-E2 CAR-T; NALM6 cells” value turned out to be 21.4% and the “% cytotoxicity; 1 pM switch; FITC-E2 CAR-T; NALM6 cells” value amounted to 47.6%.

The values are drawn from US20180104354A1, “CHIMERIC ANTIGEN RECEPTOR T CELL SWITCHES AND USES THEREOF” (The California Institute for Biomedical Research, priority 2013, published 2018).
